Among the data in patent US11596639B2, “Substituted indole Mcl-1 inhibitors” (Vanderbilt University, priority 2016, dated 2023) are Ki and GI50 values, retold here.

Test [1] concerns the target T1, Mcl-1 (Homo sapiens (Human), UniProt Q07820). In words: TR-FRET binding assay, FITC-Bak peptide and MBP-tagged Mcl-1. The following applies: read-out: Ki for Inhibition of Mcl-1 by TR-FRET assay. As for the experimental part:
Compounds are diluted in DMSO in a 16-point, semilog serial dilution scheme. […] The plate was mixed and incubated for 3 hours at room temperature. […] TR-FRET signal is plotted and IC50 and Ki values are calculated in the same manner as the fluorescence polarization anisotropy based competition assays.
Background: TR-FRET usually uses a lanthanide donor and a delayed reading to cut background.

Test [2] concerns the target T1, Mcl-1. In words: Fluorescence polarization anisotropy (FPA) competition assay, FITC-Bak or FITC-Bim BH3 peptide. The test is classed as binding. The following applies: read-out: Ki for Inhibition of Mcl-1 by FPA assay.
Test [3] has as its system H929 human cancer cell lines. In words: Cellular viability / proliferation (Cell TiterGlo, 72 h). The test is classed as cell-based. The gist of the method: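 Top dose 50 μM, serially diluted 2-fold, applied one day after seeding (1,000 cells/well, 10% FBS), DMSO below 1%.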
For orientation: In ATP-based viability assays light output follows the ATP content of the culture.

[4] abbreviates: Homo sapiens, NCI-H929, 72 h, read-out: GI50 on cellular proliferation of H929 human cancer cell lines, H929 cells, 72 h, Cell TiterGlo, 10% FBS.

Like-named read-outs stand apart in the source and are kept apart here.

T1 sequence (Q07820 172-327): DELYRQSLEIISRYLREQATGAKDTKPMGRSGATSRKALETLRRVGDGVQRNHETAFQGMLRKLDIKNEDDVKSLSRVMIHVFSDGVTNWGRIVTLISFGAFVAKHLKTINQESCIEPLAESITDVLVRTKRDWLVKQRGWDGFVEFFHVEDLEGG

As to `Cc1cc(N2C[C@@H](C)n3c(c(CCCOc4cc(C)c(Cl)c(C)c4)c4ccc(Cl)c(-c5c(C)nn(C)c5C)c43)C2=O)c2c(c1)cc(C(=O)O)n2Cc1ccccn1` [Example 714, (P, R)-7-(7-chloro-10-(3-(4-chloro-3,5-dimethylphenoxy)propyl)-4-methyl-1-oxo-6-(1,3,5-trimethyl-1H-pyrazol-4-yl)-3,4-dihydropyrazino[1,2-a]indol-2(1H)-yl)-5-methyl-1-(pyridin-2-ylmethyl)-1H-indole-2-carboxylic acid], the Ki in test [1] was below 0.2 nM.
Consider `COCCn1c(C(=O)O)cc2cc(C)cc(N3C[C@@H](C)n4c(c(CCCOc5cc(C)c(Cl)c(C)c5)c5ccc(Cl)c(-c6c(C)nn(C)c6C)c54)C3=O)c21` [Example 709, (M, R)-7-(7-chloro-10-(3-(4-chloro-3,5-dimethylphenoxy)propyl)-4-methyl-1-oxo-6-(1,3,5-trimethyl-1H-pyrazol-4-yl)-3,4-dihydropyrazino[1,2-a]indol-2(1H)-yl)-1-(2-methoxyethyl)-5-methyl-1H-indole-2-carboxylic acid], for which the inhibition constant (Ki) in test [1] is below 0.2 nM.
Turning to `Cc1cc(OCCCc2c3n(c4c(-c5c(C)nn(C)c5C)c(Cl)ccc24)[C@H](C)CN(c2cc(N(C)C(=O)CN(C)C)cc4c(C(=O)O)cn(C)c24)C3=O)cc(C)c1Cl` [Example 611, (R)-7-(7-chloro-10-(3-(4-chloro-3,5-dimethylphenoxy)propyl)-4-methyl-1-oxo-6-(1,3,5-trimethyl-1H-pyrazol-4-yl)-3,4-dihydropyrazino[1,2-a]indol-2(1H)-yl)-5-(2-(dimethylamino)-N-methylacetamido)-1-methyl-1H-indole-3-carboxylic acid], the Ki in test [1] stood at 1.1 nM.
Same read-out and setting: in the case of `Cc1cc(OCCCc2c3n(c4c(-c5c(C)nn(C)c5C)c(Cl)ccc24)[C@H](C)CN(c2ccc4ccc(C(=O)O)nc4c2)C3=O)cc(C)c1Cl` [Example 666, (R)-7-(7-chloro-10-(3-(4-chloro-3,5-dimethylphenoxy)propyl)-4-methyl-1-oxo-6-(1,3,5-trimethyl-1H-pyrazol-4-yl)-3,4-dihydropyrazino[1,2-a]indol-2(1H)-yl)quinoline-2-carboxylic acid] it was 7.2 nM.
Take `COCCn1c(C(N)=O)cc2cccc(N3C[C@@H](C)n4c(c(CCCOc5cc(C)c(Cl)c(C)c5)c5ccc(Cl)c(-c6c(C)nn(C)c6C)c54)C3=O)c21` [Example 354, (R)-7-(7-Chloro-10-(3-(4-chloro-3,5-dimethylphenoxy)propyl)-4-methyl-1-oxo-6-(1,3,5-trimethyl-1H-pyrazol-4-yl)-3,4-dihydropyrazino[1,2-a]indol-2(1H)-yl)-1-(2-methoxyethyl)-1H-indole-2-carboxamide]: the Ki in test [2] amounted to 4.3 nM. For the same compound, the GI50 in test [3] (setting [4]) is 580 nM.
Take `Cc1cc(OCCCc2c3n(c4c(-c5c(C)nn(C)c5C)c(Cl)ccc24)[C@H](C)CN(c2cn(C)c4cc(C(=N)NO)ccc24)C3=O)cc(C)c1Cl` [Example 335, (R)-3-(7-Chloro-10-(3-(4-chloro-3,5-dimethylphenoxy)propyl)-4-methyl-1-oxo-6-(1,3,5-trimethyl-1H-pyrazol-4-yl)-3,4-dihydropyrazino[1,2-a]indol-2(1H)-yl)-N-hydroxy-1-methyl-1H-indole-6-carboximidamide]: the Ki in test [2] worked out at 4.5 nM. Besides, in test [3] (setting [4]), the GI50 was 910 nM.
`Cc1cc(OCCCc2c3n(c4c(-c5c(C)nn(C)c5C)c(Cl)ccc24)[C@H](C)CN(c2cn(C)c4ccc(C#N)cc24)C3=O)cc(C)c1Cl` [Example 208, (R)-3-(7-Chloro-10-(3-(4-chloro-3,5-dimethylphenoxy)propyl)-4-methyl-1-oxo-6-(1,3,5-trimethyl-1H-pyrazol-4-yl)-3,4-dihydropyrazino[1,2-a]indol-2(1H)-yl)-1-methyl-1H-indole-5-carbonitrile]: the Ki in test [2] is below 1 nM. Further, the GI50 in test [3] (setting [4]) turned out to be 1600 nM.
With `Cc1cc(OCCCc2c3n(c4c(-c5c(C)nn(C)c5C)c(Cl)ccc24)[C@H](C)CN(c2ccc(OCc4ccccc4)c4c2cc(C(=O)O)n4C)C3=O)cc(C)c1Cl` [Example 312, (M, R)-7-(benzyloxy)-4-(7-chloro-10-(3-(4-chloro-3,5-dimethylphenoxy)propyl)-4-methyl-1-oxo-6-(1,3,5-trimethyl-1H-pyrazol-4-yl)-3,4-dihydropyrazino[1,2-a]indol-2(1H)-yl)-1-methyl-1H-indole-2-carboxylic acid], the Ki in test [2] was determined as 1.9 nM. Further, the GI50 in test [3] (H929 cells, 72 h, Cell TiterGlo, 10% FBS, read-out: GI50 on cellular proliferation of H929 human cancer cell lines) is 5700 nM.
With `Cc1cc(OCCCc2c3n(c4c(-c5c(C)nn(C)c5C)c(Cl)ccc24)[C@H](C)CN(c2cccc4c2cc(C#N)n4C)C3=O)cc(C)c1Cl` [Example 301, 4-[(4R)-7-chloro-10-[3-(4-chloro-3,5-dimethyl-phenoxy)propyl]-4-methyl-1-oxo-6-(1,3,5-trimethylpyrazol-4-yl)-3,4-dihydropyrazino[1,2-a]indol-2-yl]-1-methyl-indole-2-carbonitrile], the Ki in test [2] worked out at 2.8 nM. The GI50 in test [3] (setting [4]) turned out to be 8300 nM.
With `Cc1cc(N2C[C@@H](C)n3c(c(CCCOc4cc(C)c(Cl)c(C)c4)c4ccc(Cl)c(-c5c(C)nn(C)c5C)c43)C2=O)c2c(c1)c(C(=O)O)cn2C` [Example 159, (R)-7-(7-chloro-10-(3-(4-chloro-3,5-dimethylphenoxy)propyl)-4-methyl-1-oxo-6-(1,3,5-trimethyl-1H-pyrazol-4-yl)-3,4-dihydropyrazino[1,2-a]indol-2(1H)-yl)-1,5-dimethyl-1H-indole-3-carboxylic acid], the Ki in test [2] was below 1 nM. Further, the GI50 in test [3] (setting [4]) amounted to 290 nM.
The matching figures for `Cc1cc(OCCCc2c3n(c4c(-c5c(C)ncnc5C)c(Cl)ccc24)CCCN(c2cn(C)c4cc(C(=O)O)ccc24)C3=O)cc(C)c1Cl` [Example 176, 3-[8-Chloro-11-[3-(4-chloro-3,5-dimethyl-phenoxy)propyl]-7-(4,6-dimethylpyrimidin-5-yl)-1-oxo-4,5-dihydro-3H-[1,4]diazepino[1,2-a]indol-2-yl]-1-methyl-indole-6-carboxylic acid]: below 1 nM and 410 nM.
In the case of `Cc1cc(OCCCc2c3n(c4c(-c5c(C)ncnc5C)c(Cl)ccc24)CCCN(c2cc(C(=O)O)c4ccn(C)c4c2)C3=O)cc(C)c1Cl` [Example 130, 6-[8-Chloro-11-[3-(4-chloro-3,5-dimethyl-phenoxy)propyl]-7-(4,6-dimethylpyrimidin-5-yl)-1-oxo-4,5-dihydro-3H-[1,4]diazepino[1,2-a]indol-2-yl]-1-methyl-indole-4-carboxylic acid], in test [2], the Ki is below 1 nM. Besides, the GI50 in test [3] (setting [4]) amounted to 2400 nM.
Taken in the same sequence, the figures for `Cc1noc(-c2ccc3c(c2)c(N2C[C@@H](C)n4c(c(CCCOc5cc(C)c(Cl)c(C)c5)c5ccc(Cl)c(-c6c(C)nn(C)c6C)c54)C2=O)cn3C)n1` [Example 393, (R)-7-Chloro-10-(3-(4-chloro-3,5-dimethylphenoxy)propyl)-4-methyl-2-(1-methyl-5-(3-methyl-1,2,4-oxadiazol-5-yl)-1H-indol-3-yl)-6-(1,3,5-trimethyl-1H-pyrazol-4-yl)-3,4-dihydropyrazino[1,2-a]indol-1(2H)-one] were 2.3 nM and 1200 nM.
Taken in the same sequence, the figures for `Cc1cc(OCCCc2c3n(c4c(-c5c(C)nn(C)c5C)c(Cl)ccc24)[C@H](C)CN(c2cn(C)c4ccc(-c5ncn(C)n5)cc24)C3=O)cc(C)c1Cl` [Example 403, (R)-7-Chloro-10-(3-(4-chloro-3,5-dimethylphenoxy)propyl)-4-methyl-2-(1-methyl-5-(1-methyl-1H-1,2,4-triazol-3-yl)-1H-indol-3-yl)-6-(1,3,5-trimethyl-1H-pyrazol-4-yl)-3,4-dihydropyrazino[1,2-a]indol-1(2H)-one] were 1.5 nM and below 200 nM.
Taken in the same sequence, the figures for `Cc1cc(OCCCc2c3n(c4c(-c5c(C)nn(C)c5C)c(Cl)ccc24)[C@H](C)CN(c2cccc4c(C(=O)O)n(C)nc24)C3=O)cc(C)c1Cl` [Example 54, (R)-7-(7-chloro-10-(3-(4-chloro-3,5-dimethylphenoxy)propyl)-4-methyl-1-oxo-6-(1,3,5-trimethyl-1H-pyrazol-4-yl)-3,4-dihydropyrazino[1,2-a]indol-2(1H)-yl)-2-methyl-2H-indazole-3-carboxylic acid] were below 1 nM and 320 nM.
Turning to `CCn1cc(N2C[C@@H](C)n3c(c(CCCOc4cc(C)c(Cl)c(C)c4)c4ccc(Cl)c(-c5c(C)nn(C)c5C)c43)C2=O)c2cc(C(=O)O)ccc21` [Example 164, (R)-3-(7-Chloro-10-(3-(4-chloro-3,5-dimethylphenoxy)propyl)-4-methyl-1-oxo-6-(1,3,5-trimethyl-1H-pyrazol-4-yl)-3,4-dihydropyrazino[1,2-a]indol-2(1H)-yl)-1-ethyl-1H-indole-5-carboxylic acid], the inhibitory constant (Ki) in test [2] was 1.7 nM. Further, the GI50 in test [3] (setting [4]) was 920 nM.
As for `Cc1cc(OCCCc2c3n(c4c(-c5c(C)nn(C)c5C)c(Cl)ccc24)[C@H](C)[C@@H](C)NC3=O)cc(C)c1Cl` [Example 140, (3R,4R)-7-chloro-10-(3-(4-chloro-3,5-dimethylphenoxy)propyl)-3,4-dimethyl-6-(1,3,5-trimethyl-1H-pyrazol-4-yl)-3,4-dihydropyrazino[1,2-a]indol-1(2H)-one], the Ki in test [2] came to 79 nM. In addition, the GI50 in test [3] (setting [4]) turned out to be 7600 nM.

The term Ki denotes a dissociation constant, usually derived from enzyme kinetics or from competition with a known ligand.
